According to publication PMC9913023, “Repositioning linifanib as a potent anti-necroptosis agent for sepsis” (Cell Death Discovery, 2023):

Molecular target: T1, RIPK1 (receptor-interacting serine/threonine-protein kinase 1) (Homo sapiens, UniProt Q13546)
T1 sequence (Q13546 1-671): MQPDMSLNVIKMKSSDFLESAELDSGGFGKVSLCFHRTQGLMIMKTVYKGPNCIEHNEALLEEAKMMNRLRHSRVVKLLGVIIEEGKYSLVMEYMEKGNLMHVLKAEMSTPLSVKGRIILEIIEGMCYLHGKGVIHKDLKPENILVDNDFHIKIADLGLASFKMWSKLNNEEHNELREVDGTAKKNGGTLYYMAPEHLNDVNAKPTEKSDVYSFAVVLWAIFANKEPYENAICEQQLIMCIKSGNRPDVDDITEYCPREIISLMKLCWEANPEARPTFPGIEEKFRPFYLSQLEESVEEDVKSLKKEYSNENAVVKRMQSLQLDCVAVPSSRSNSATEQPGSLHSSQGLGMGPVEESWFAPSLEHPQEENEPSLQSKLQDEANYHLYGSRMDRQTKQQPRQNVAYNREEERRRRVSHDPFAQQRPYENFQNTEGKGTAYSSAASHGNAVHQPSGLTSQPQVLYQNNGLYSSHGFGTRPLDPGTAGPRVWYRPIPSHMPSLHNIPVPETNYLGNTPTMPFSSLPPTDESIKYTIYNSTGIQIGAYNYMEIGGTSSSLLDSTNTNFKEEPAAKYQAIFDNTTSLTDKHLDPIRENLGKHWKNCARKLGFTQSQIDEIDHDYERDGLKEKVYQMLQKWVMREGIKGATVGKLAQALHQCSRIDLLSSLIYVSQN
Assay: ADP-Glo kinase assay with recombinant human RIPK1 ([…])
Assay type: biochemical

## Cc1ccc(F)c(NC(=O)Nc2ccc(-c3cccc4[nH]nc(N)c34)cc2)c1 [linifanib]
  IC50: 670 nM
